Reference: BindingDB's records for doi:10.1021/acschembio.5b00514 (Technische Universität München, 2015)

How the values were obtained:
Assay in all cases: Activity-based Protein Profiling (ABPP)
Settings in all cases: pH 7.4; 37 °C
[1] = molecular target: T1, Rhomboid-related protein 3 (Mus musculus, UniProt P58873)
T1 sequence (P58873 whole entry): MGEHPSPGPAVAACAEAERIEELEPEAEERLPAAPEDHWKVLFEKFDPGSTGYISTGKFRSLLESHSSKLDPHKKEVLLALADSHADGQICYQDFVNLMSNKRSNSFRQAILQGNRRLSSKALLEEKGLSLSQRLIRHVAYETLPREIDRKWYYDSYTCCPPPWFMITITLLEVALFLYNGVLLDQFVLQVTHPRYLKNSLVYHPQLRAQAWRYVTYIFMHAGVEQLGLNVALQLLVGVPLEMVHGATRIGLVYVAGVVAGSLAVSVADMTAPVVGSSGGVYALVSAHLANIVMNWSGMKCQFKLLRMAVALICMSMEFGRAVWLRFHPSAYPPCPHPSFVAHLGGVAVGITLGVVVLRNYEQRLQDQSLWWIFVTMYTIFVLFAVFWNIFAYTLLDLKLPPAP
Source text: (§1) We selected several inhibitor structures and determined their apparent IC50 by competitive ABPP.

GlpG protein = molecular target: T2, GlpG protein (Vibrio cholerae, UniProt Q9KVP2)
T2 sequence (Q9KVP2 whole entry): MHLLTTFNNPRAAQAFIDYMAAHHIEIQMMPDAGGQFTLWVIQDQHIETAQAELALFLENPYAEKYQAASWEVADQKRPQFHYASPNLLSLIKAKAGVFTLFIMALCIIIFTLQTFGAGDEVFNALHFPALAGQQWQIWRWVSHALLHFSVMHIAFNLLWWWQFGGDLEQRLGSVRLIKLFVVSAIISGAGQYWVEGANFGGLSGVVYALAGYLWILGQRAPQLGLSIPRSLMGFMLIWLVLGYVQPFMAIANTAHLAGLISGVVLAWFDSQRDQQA
Source text: as §1

Rhomboid protease GlpG [2] = molecular target: T3, Rhomboid protease GlpG (Escherichia coli (strain K12), UniProt P09391)
T3 sequence (P09391 whole entry): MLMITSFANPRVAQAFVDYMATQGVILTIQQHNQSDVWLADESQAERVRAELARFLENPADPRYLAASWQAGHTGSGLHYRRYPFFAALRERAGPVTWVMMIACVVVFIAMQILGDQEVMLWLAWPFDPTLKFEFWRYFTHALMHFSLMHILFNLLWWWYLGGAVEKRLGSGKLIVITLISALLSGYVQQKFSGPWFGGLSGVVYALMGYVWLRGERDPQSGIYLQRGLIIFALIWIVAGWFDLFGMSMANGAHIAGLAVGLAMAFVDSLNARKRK
Source text: as §1

[3] = molecular target: T4, Rhomboid domain-containing protein (Aquifex aeolicus (strain VF5), UniProt O67346)
T4 sequence (O67346 whole entry): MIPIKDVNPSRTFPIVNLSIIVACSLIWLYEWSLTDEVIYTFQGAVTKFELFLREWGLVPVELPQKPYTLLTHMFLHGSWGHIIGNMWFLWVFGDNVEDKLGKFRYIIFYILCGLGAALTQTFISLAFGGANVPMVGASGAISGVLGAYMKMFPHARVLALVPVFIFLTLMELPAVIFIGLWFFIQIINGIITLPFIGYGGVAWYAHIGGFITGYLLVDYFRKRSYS
Source text: as §1

[4] = molecular target: Rhomboid protease GluP [F193S,L370F,L379S,R499W] (Bacillus subtilis (strain 168), UniProt P54493, F193S/L370F/L379S/R499W)
Source text: as §1

[5] = molecular target: T5, Rhomboid domain-containing protein (Thermotoga maritima (strain ATCC 43589 / DSM 3109 / JCM 10099 / NBRC 100826 / MSB8), UniProt Q9WZ53)
T5 sequence (Q9WZ53 whole entry): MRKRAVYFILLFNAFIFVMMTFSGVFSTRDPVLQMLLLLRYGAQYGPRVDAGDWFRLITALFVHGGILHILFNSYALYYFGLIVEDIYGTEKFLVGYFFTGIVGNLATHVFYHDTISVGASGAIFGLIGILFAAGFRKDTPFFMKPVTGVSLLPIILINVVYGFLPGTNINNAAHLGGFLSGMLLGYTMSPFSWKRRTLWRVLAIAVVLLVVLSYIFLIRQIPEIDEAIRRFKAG
Source text: as §1

[6] = molecular target: T6, Rhomboid domain-containing protein (Pyrococcus horikoshii (strain ATCC 700860 / DSM 12428 / JCM 9974 / NBRC 100139 / OT-3), UniProt O59166)
T6 sequence (O59166 whole entry): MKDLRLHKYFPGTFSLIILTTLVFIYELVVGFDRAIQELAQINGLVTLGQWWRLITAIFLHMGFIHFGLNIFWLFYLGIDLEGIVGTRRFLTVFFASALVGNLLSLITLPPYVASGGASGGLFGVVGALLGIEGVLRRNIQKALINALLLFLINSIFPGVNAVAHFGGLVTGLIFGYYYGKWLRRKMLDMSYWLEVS
Source text: as §1

[7] = molecular target: T7, Rhomboid-related protein 1 (Mus musculus, UniProt Q8VC82)
T7 sequence (Q8VC82 whole entry): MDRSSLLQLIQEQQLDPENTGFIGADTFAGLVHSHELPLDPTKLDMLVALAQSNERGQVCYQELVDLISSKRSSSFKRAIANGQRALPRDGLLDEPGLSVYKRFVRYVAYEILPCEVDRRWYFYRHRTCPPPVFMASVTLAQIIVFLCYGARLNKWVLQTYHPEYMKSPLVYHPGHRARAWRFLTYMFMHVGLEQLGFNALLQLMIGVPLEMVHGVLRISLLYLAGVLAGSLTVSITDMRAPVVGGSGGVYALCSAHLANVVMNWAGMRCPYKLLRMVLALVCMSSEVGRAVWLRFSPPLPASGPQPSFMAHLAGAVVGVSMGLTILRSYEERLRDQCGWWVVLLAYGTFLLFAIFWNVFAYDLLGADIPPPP
Source text: as §1

Rhomboid protease AarA = molecular target: T8, Rhomboid protease AarA (Providencia stuartii, UniProt P46116)
T8 sequence (P46116 whole entry): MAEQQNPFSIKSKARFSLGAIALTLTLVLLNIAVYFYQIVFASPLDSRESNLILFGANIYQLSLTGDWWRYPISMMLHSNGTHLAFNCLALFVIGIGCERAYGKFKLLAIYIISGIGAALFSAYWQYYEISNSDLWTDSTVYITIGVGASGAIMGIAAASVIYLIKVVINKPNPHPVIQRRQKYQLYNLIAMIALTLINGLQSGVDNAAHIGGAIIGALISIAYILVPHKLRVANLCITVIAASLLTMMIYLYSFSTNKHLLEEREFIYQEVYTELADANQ
Source text: as §1

Rhomboid protease GlpG [8] = molecular target: T9, Rhomboid protease GlpG (Haemophilus influenzae, UniProt A0A2R3FW87)
T9 sequence (A0A2R3FW87 whole entry): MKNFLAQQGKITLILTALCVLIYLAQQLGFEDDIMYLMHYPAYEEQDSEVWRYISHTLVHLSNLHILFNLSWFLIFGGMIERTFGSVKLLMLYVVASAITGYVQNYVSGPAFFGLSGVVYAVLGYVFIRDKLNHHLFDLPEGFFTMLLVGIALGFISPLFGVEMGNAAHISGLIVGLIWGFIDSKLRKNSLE
Source text: as §1

[9] = molecular target: T10, AN1-type domain-containing protein (Archaeoglobus fulgidus (strain ATCC 49558 / DSM 4304 / JCM 9628 / NBRC 100126 / VC-16), UniProt O29251)
T10 sequence (O29251 whole entry): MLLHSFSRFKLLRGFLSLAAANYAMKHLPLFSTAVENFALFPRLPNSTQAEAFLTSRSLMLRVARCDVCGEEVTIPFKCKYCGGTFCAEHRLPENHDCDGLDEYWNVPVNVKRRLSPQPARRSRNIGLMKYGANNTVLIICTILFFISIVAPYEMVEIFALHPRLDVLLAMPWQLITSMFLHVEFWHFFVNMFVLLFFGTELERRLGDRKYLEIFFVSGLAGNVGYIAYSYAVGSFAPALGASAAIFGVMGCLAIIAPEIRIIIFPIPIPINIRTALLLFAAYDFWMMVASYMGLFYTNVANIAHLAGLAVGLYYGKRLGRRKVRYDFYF
Source text: as §1

Chain of Rhomboid protease GluP [F193S,L370F,L379S,R499W] (P54493 whole entry F192S/L370F/L379S/R499W): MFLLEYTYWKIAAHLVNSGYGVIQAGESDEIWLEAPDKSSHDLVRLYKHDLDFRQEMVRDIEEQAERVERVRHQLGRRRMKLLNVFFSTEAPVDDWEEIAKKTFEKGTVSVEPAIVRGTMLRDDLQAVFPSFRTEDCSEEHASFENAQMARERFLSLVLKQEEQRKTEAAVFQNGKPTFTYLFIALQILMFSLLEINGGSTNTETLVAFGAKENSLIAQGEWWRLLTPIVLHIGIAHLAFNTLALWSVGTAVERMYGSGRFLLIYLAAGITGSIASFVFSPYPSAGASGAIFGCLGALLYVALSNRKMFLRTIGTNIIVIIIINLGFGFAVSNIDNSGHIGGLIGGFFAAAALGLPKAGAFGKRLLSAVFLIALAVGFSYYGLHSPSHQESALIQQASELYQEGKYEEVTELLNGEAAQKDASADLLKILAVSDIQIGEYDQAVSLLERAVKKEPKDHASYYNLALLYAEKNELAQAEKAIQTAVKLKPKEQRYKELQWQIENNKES

O=c1oc(Cl)c(Cl)c2ccccc12
IC50 [1]: 70 µM | IC50 (GlpG protein): 27 µM | IC50 (Rhomboid protease GlpG [2]): 19 µM | IC50 [3]: 1.1 µM | IC50 [4]: 4.1 µM | IC50 [5]: 1 µM | IC50 [6]: 16 µM | IC50 [7]: 28 µM | IC50 (Rhomboid protease AarA): 10 µM | IC50 (Rhomboid protease GlpG [8]): 0.66 µM | IC50 [9]: 8.1 µM

O=c1oc(OCCCCCc2ccccc2)c(Cl)c2ccc([N+](=O)[O-])cc12 [4‐Chloro‐7‐nitro‐3‐[(5‐phenylpentyl)oxy]isochromen‐1‐one (21)]
IC50 [1]: 24 µM | IC50 (GlpG protein): 76 µM | IC50 [3]: 1.7 µM | IC50 [4]: 25 µM | IC50 [5]: 28 µM | IC50 [6]: 25 µM | IC50 [7]: 39 µM | IC50 (Rhomboid protease AarA): 10 µM | IC50 (Rhomboid protease GlpG [8]): 4.6 µM

C#CCCC[C@@H]1OC(=O)[C@H]1CCCC [(4S)‐3‐butyl‐4‐(pent‐4‐yn‐1‐yl)oxetan‐2‐one (48)]
IC50 (Rhomboid protease GlpG [2]): 44 µM | IC50 [5]: 48 µM

C#CCCC[C@@H]1OC(=O)[C@H]1c1cc(OC)c(OC)c(OC)c1 [(4S)‐4‐(pent‐4‐yn‐1‐yl)‐3‐(3,4,5‐trimethoxyphenyl)oxetan‐2‐one (45)]
IC50 (Rhomboid protease GlpG [8]): 65 µM | IC50 [9]: 5 µM

C#CCCC[C@@H]1OC(=O)[C@H]1CCCCC [(4S)‐4‐(pent‐4‐yn‐1‐yl)‐3‐pentyloxetan‐2‐one (47)]
IC50 [5]: 27 µM
